Reference: US20240217968A1, “PHARMACEUTICAL COMPOUND” (DUKE STREET BIO LIMITED, priority 2021, published 2024)

Molecular target: T1, recombinant human Flag-tagged PARP7 (amino acids 456-657) (Homo sapiens, UniProt Q7Z3E1)
T1 construct: recombinant human Flag-tagged PARP7 (amino acids 456-657)
T1 sequence (Q7Z3E1 456-657): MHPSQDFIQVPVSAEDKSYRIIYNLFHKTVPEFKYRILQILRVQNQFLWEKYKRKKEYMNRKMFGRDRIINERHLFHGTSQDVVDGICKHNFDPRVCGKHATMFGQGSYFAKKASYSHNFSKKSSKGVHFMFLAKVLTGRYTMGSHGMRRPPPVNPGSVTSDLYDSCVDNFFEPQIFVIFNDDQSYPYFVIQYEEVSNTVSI
Assay: PARP7 biochemical DELFIA assay (auto-MARylation)
Conditions: DELFIA readout, IC50 class
How it was run: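 Readout is DELFIA time-resolved Eu fluorescence (Ex337 nm, Em620 nm) of biotin-ADP-ribose on immobilised Flag-tagged PARP7 456-657. Enzyme (12.5-37.5 nM as added) sat 30 min with compound before biotin-NAD+ (15 μM solution, pH 7.5 HEPES buffer) started 2-3 h room-temperature self-modification, stopped with excess NAD+.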

IC50	SMILES
≤ 100 nM	CC(COCCC(=O)N1CCN(c2ccc(C(F)F)cn2)CC1)n1nc(C(F)(F)F)c2c(=O)[nH]ncc21 (stereo not drawn) [Compound 342]
≤ 100 nM	CC(C)(COCCC(=O)N1CCN(c2ncc(C(F)(F)F)cn2)CC1)n1nc(C(F)(F)F)c2c(=O)[nH]ncc21 [Compound 346]
≤ 100 nM	O=C(CCOCCn1cc(C(F)(F)F)c2c(=O)[nH]ncc21)N1CCN(c2nc3cc(Cl)ccc3o2)CC1 [Compound 359]
≤ 100 nM	CC(COCCC(=O)N1CCN(c2ccc(C#N)cn2)CC1)n1cc(C(F)F)c2c(=O)[nH]ncc21 (single isomer, unassigned) [Compound 448]
≤ 100 nM	Cc1nn(C(C)COCCC(=O)N2CCN(c3ncc(Cl)cn3)CC2)c2cn[nH]c(=O)c12 (stereo not drawn) [Compound 336]
≤ 100 nM	Cc1nn(CCOCCC(=O)N2CCN(c3ncc(C(F)(F)F)cn3)C(C)C2)c2cn[nH]c(=O)c12 (single isomer, unassigned) [Compound 255]
≤ 100 nM	CC(COCCC(=O)N1CCN(c2ncc(C(F)(F)F)cn2)CC1)n1nc(C(F)(F)F)c2c(=O)[nH]ccc21 (stereo not drawn) [Compound 388]
≤ 100 nM	CC(COCCC(=O)N1CCN(c2nnc(C(F)(F)F)s2)CC1)n1nc(C(F)(F)F)c2c(=O)[nH]ncc21 (stereo not drawn) [Compound 292]
≤ 100 nM	CC(COCCC(=O)N1CCN(c2ccc(C#N)cn2)CC1)n1cc(C(F)(F)F)c2c(=O)[nH]ncc21 (single isomer, unassigned) [Compound 432]
≤ 100 nM	CC1CN(C(=O)CCOCCn2cc(C(F)(F)F)c3c(=O)[nH]ncc32)CCN1c1ncc(C(F)(F)F)cn1 (stereo not drawn) [Compound 373]
≤ 100 nM	CC(COCCC(=O)N1CCN(c2ncc(C#N)s2)CC1)n1nc(C(F)(F)F)c2c(=O)[nH]ncc21 (stereo not drawn) [Compound 283]
≤ 100 nM	O=C(CCOCCn1cc(C(F)(F)F)c2c(=O)[nH]c(=O)[nH]c21)N1CCN(c2ncc(C(F)(F)F)cn2)CC1 [Compound 403]
≤ 100 nM	[2H]C([2H])(OCCC(=O)N1CCN(c2ncc(C#N)cn2)CC1)C(C)n1nc(C(F)(F)F)c2c(=O)[nH]ncc21 (single isomer, unassigned) [Compound 421, 2-(4-(3-(2-(4-oxo-3-(trifluoromethyl)-4,5-dihydro-1H-pyrazolo[3,4-d]pyridazin-1-yl)propoxy-1,1-d2)propanoyl)piperazin-1-yl)pyrimidine-5-carbonitrile]
1000 to 10000 nM	CCc1nc2c(=O)[nH]ncc2n1CCOCCC(=O)N1CCN(c2ncc(C(F)(F)F)cn2)CC1 [Compound 260]
≤ 100 nM	O=C(CCOCCn1nc(C(F)(F)F)c2c(=O)[nH]ncc21)N1CCN(c2nnc(C(F)(F)F)[nH]2)CC1 [Compound 391]
1000 to 10000 nM	O=C(CCOCCn1nc(C(F)(F)F)c2c(=O)[nH]ncc21)N1CCN(C2CN(CC(F)(F)F)C2)CC1 [Compound 433]
≤ 100 nM	[2H]C(C)(COCCC(=O)N1CCN(c2ncc(C(F)(F)F)cn2)CC1)n1cc(C(F)(F)F)c2c(=O)[nH]ncc21 (single isomer, unassigned) [Compound 476, 1-(1-(3-oxo-3-(4-(5-(trifluoromethyl)pyrimidin-2-yl)piperazin-1-yl)propoxy)propan-2-yl-2-d)-3-(trifluoromethyl)-1,5-dihydro-4H-pyrrolo[2,3-d]pyridazin-4-one]
≤ 100 nM	Cc1c(C(F)(F)F)c2c(=O)[nH]ncc2n1C(C)COCCC(=O)N1CCN(c2ncc(C(F)(F)F)cn2)CC1 (stereo not drawn) [Compound 474]
≤ 100 nM	O=C(CCOCCn1cc(C(F)(F)F)c2c(=O)[nH]ncc21)N1CCN(c2nc3ccccc3[nH]2)CC1 [Compound 380]
≤ 100 nM	CC(COCCC(=O)N1CCN(c2ncc(C#N)cn2)CC1)n1nc(C(F)(F)F)c2c(=O)[nH]ncc21 (single isomer, unassigned) [Compound 321, 2-(4-(3-(2-(4-oxo-3-(trifluoromethyl)-4,5-dihydro-1H-pyrazolo[3,4-d]pyridazin-1-yl)propoxy)propanoyl)piperazin-1-yl) pyrimidine-5-carbonitrile]

The next lines start with the compound.

SMILES	IC50
CN(C(=O)COCCc1cccc2c(=O)[nH]ncc12)C1CCN(c2ncc(C(F)(F)F)cn2)CC1 [Compound 108]	≤ 100 nM
CC1CN(c2ncc(C(F)(F)F)cn2)CCN1C(=O)CCOCCn1nc(C(F)(F)F)c2c(=O)[nH]ncc21 (stereo not drawn) [Compound 160]	≤ 100 nM
CC(COCCC(=O)N1CCN(c2ncc(C(F)(F)F)cn2)CC1)c1cc(F)cc2c(=O)[nH]ncc12 (stereo not drawn) [Compound 119]	1000 to 10000 nM
CCc1cc2c(=O)[nH]ncc2n1CCOCCC(=O)N1CCN(c2ncc(C(F)(F)F)cn2)CC1 [Compound 59]	100 to 1000 nM
CCc1cn(CCOCCC(=O)N2CCN(c3ncc(C(F)(F)F)cn3)CC2)c2cn[nH]c(=O)c12 [Compound 164]	≤ 100 nM
O=C(CCCOC(c1cccc2c(=O)[nH]ncc12)C(F)(F)F)N1CCN(c2ncc(C(F)(F)F)cn2)CC1 (single isomer, unassigned) [Compound 221, 5-(2,2,2-trifluoro-1-(4-oxo-4-(4-(5-(trifluoromethyl)pyrimidin-2-yl)piperazin-1-yl)butoxy)ethyl)phthalazin-1(2H)-one]	100 to 1000 nM
O=C(CCOCCn1nc(C(F)(F)F)c2c(=O)[nH]ncc21)N1CCN(c2nc3cc(F)ccc3o2)CC1 [Compound 215, 1-(2-(3-(4-(5-fluorobenzo[d]oxazol-2-yl)piperazin-1-yl)-3-oxopropoxy)ethyl)-3-(trifluoromethyl)-1,5-dihydro-4H-pyrazolo[3,4-d]pyridazin-4-one]	≤ 100 nM
N#Cc1ccc(N2CCN(C(=O)CCOCCn3ncc4c(=O)[nH]ncc43)CC2)nc1 [Compound 92]	100 to 1000 nM
O=C(c1cccc(OCc2cccc3c(=O)[nH]ncc23)c1)N1CCN(c2ncc(C(F)(F)F)cn2)CC1 [Compound 94]	1000 to 10000 nM
N#Cc1ccc(N2CCN(C(=O)c3cccc(Cc4cc(Cl)cc5c(=O)[nH]ncc45)c3)CC2)nc1 [Compound 57]	≤ 100 nM
O=C1NCCc2c(CCOCCC(=O)N3CCN(c4ncc(C(F)(F)F)cn4)CC3)cccc21 [Compound 23]	100 to 1000 nM
CC1CN(C(=O)CCOCCn2ncc3c(=O)[nH]ncc32)CCN1c1ncc(C(F)(F)F)cn1 (stereo not drawn) [Compound 138]	≤ 100 nM
CC(C)c1nn(CCOCCC(=O)N2CCN(c3ncc(C(F)(F)F)cn3)CC2)c2cn[nH]c(=O)c12 [Compound 154]	≤ 100 nM
CC(COCCc1cccc2c(=O)[nH]ncc12)C(=O)N1CCN(c2ncc(C(F)(F)F)cn2)CC1 (stereo not drawn) [Compound 206]	≤ 100 nM
O=C(CCOCCc1cc(Cl)cc2c(=O)[nH]ncc12)N1CCN(c2ncc(C(F)(F)F)cn2)CC1 [Compound 80, 7-chloro-5-(2-(3-oxo-3-(4-(5-(trifluoromethyl)pyrimidin-2-yl)piperazin-1-yl)propoxy)ethyl)phthalazin-1(2H)-one]	≤ 100 nM
O=C(CCOCCc1cccc2c(=O)[nH]ncc12)N1CCN(c2cnc(C(F)(F)F)cn2)CC1 [Compound 105]	≤ 100 nM

SMILES	IC50
CC(COCCC(=O)N1CCN(c2ncc(F)cn2)CC1)n1nc(C(F)(F)F)c2c(=O)[nH]ncc21 (single isomer, unassigned) [Compound 249, 1-(1-(3-(4-(5-fluoropyrimidin-2-yl)piperazin-1-yl)-3-oxopropoxy)propan-2-yl)-3-(trifluoromethyl)-1,5-dihydro-4H-pyrazolo[3,4-d]pyridazin-4-one]	≤ 100 nM
N#Cc1ccc(N2CCN(C(=O)c3cccc(Cc4cccc5c(=O)[nH]ncc45)c3)CC2)nc1 [Compound 1, 6-(4-(3-((1-oxo-1,2-dihydrophthalazin-5-yl)methyl)benzoyl)piperazin-1-yl)nicotinonitrile]	≤ 100 nM
CC(COCCC(=O)N1CCN(c2nc(C#N)cs2)CC1)n1nc(C(F)(F)F)c2c(=O)[nH]ncc21 (single isomer, unassigned) [Compound 250]	1000 to 10000 nM
N#Cc1ccc(N2CCCN(C(=O)c3cccc(Cc4cccc5c(=O)[nH]ncc45)c3)CC2)nc1 [Compound 28]	100 to 1000 nM
CC(COCCC(=O)N1CCN(c2ncc(C(F)(F)F)cn2)CC1)c1cc(F)cc2c(=O)[nH]ncc12 (stereo not drawn) [Compound 120]	≤ 100 nM
Cc1nn(C(C)COCCC(=O)N2CCN(c3ncc(C(F)(F)F)cn3)CC2)c2cn[nH]c(=O)c12 (single isomer, unassigned) [Compound 245]	≤ 100 nM
N#Cc1ccc(N2CCN(C(=O)c3cccc(Cc4cccc5c4CCCNC5=O)c3)CC2)nc1 [Compound 204]	100 to 1000 nM
O=C(CCOCCn1nc(C(F)(F)F)c2c(=O)[nH]ncc21)N1CCN(c2nc3cc(Cl)ccc3o2)CC1 [Compound 171]	≤ 100 nM
N#Cc1ccc(N2CCN(C(=O)CCOCCN3CCCc4c3cn[nH]c4=O)CC2)nc1 [Compound 44]	≤ 100 nM
CC(COCCC(=O)N1CCN(c2ccc(C(F)(F)F)cn2)CC1)n1nc(C(F)(F)F)c2c(=O)[nH]ncc21 (stereo not drawn) [Compound 179]	≤ 100 nM
O=C(c1cccc(Cc2cccc3c(=O)[nH]ncc23)c1)N1CCN(c2ccccc2)CC1 [Compound 27]	1000 to 10000 nM
CC(OCCCC(=O)N1CCN(c2ncc(C(F)(F)F)cn2)CC1)c1cc(Cl)cc2c(=O)[nH]ncc12 (single isomer, unassigned) [Compound 175, 7-chloro-5-(1-(4-oxo-4-(4-(5-(trifluoromethyl)pyrimidin-2-yl)piperazin-1-yl)butoxy)ethyl)phthalazin-1(2H)-one]	≤ 100 nM
CC1CN(C(=O)CCOCCn2nc(C(F)(F)F)c3c(=O)[nH]ncc32)CCN1c1ncc(C(F)(F)F)cn1 (single isomer, unassigned) [Compound 187]	≤ 100 nM
O=C(CCOCCc1cccc2c(=O)[nH]ncc12)N1CCN(c2ccc(F)cn2)CC1 [Compound 95]	100 to 1000 nM
N#Cc1ccc(N2CCN(C(=O)c3cccc(COc4cccc5c(=O)[nH]ncc45)c3)CC2)nc1 [Compound 40]	100 to 1000 nM
